In patent US5332818A, “Immunosuppressive agent and process of producing the same” (Toray Industries, Inc., priority 1989, dated 1994) one finds inhibition data, which are given here for 21 compounds.

SMILES strings stand for the structures.

This assay relates to mouse spleen cells. The experiment in a line: Suppression of mitogen (ConA) reaction. The format is cell-based, C57BL/6 mouse. To be noted: 48 hours, 3 cases, read-out: Suppression Rate of Mitogen Reaction; for inhibition at 1 µg/mL: 1 μg/ml; for inhibition at 10 µg/mL: 10 μg/ml; for inhibition at 50 µg/mL: 50 μg/ml. On the procedure:
If mouse spleen cells are cultured in vitro in the presence of concanavalin A (hereinafter referred to as "ConA" for short), the cells are divided and proliferated (mitogen reaction). In this system, the immunosuppressive agent of the present invention or cyclosporin A as a comparative example was added to the culture medium and the effects to the mitogen reaction were examined.
More particularly, C57BL/6 mouse was sacrificed and the spleen was removed. The spleen cells were suspended in RPMI 1640 culture medium containing 10% fetal calf serum (hereinafter referred to as "RPMI 1640" for short) so as to prepare a spleen cell suspension (5×10^6 cells/ml). In the wells of a flat-bottomed 96-well microplate, 100 μl of the suspension was placed and then 50 μl of RPMI 1640 containing ConA (4 μg/ml) as well as 50 μl of RPMI 1640 containing the test compound in the concentration shown in Table 2 were added. The cells were cultured for 48 hours (37° C. 5%CO2) As a control, 50 μl of RPMI 1640 was added. Eight hours before the termination of the culture, 2 μ Ci of [^3 H] thymidine was […], added. After termination of the culture, the cells were collected on a filter paper by using a cell harvester. After drying the filter paper, the filter paper was placed in a vial containing toluene-based scintillator and the radioactivity was measured by a liquid scintillation counter.
The suppression rate of mitogen reaction was calculated according to the following equation: [formula]

As to `CN1CC[C@]23c4c5ccc(O)c4O[C@H]2c2[nH]c4ccccc4c2C[C@H]3[C@H]1C5` [Me H H NH H H], the inhibition at 1 µg/mL was determined as 0%, the inhibition at 10 µg/mL was 12% and the inhibition at 50 µg/mL came out at 52%.
As to `C=CCN1CC[C@]23c4c5ccc(OC(C)=O)c4O[C@H]2c2[nH]c4ccccc4c2C[C@@]3(OC(C)=O)[C@H]1C5` [allyl OAc Ac NH H H], the inhibition at 1 µg/mL was determined as 2%, the inhibition at 10 µg/mL worked out at 40% and the inhibition at 50 µg/mL was determined as 100%.
For the compound `C=CCN1CC[C@]23c4c5ccc(O)c4O[C@H]2c2[nH]c4ccc(C)cc4c2C[C@@]3(O)[C@H]1C5` [allyl OH H NH 5'-Me H, 5'-methylnaloxindole], the inhibition at 1 µg/mL was 22%, the inhibition at 10 µg/mL worked out at 45% and the inhibition at 50 µg/mL is 100%.
The corresponding values for `C=CCN1CC[C@]23c4c5ccc(O)c4O[C@H]2c2[nH]c4c(Cl)cccc4c2C[C@@]3(O)[C@H]1C5` [allyl OH H NH 7'-Cl H] are 17%, 50% and 100%.
For `C=CCN1CC[C@]23c4c5ccc(O)c4O[C@H]2c2c(c4ccccc4n2C)C[C@@]3(O)[C@H]1C5` [allyl OH H NMe H H], the inhibition at 1 µg/mL turned out to be 13%, the inhibition at 10 µg/mL stood at 50% and the inhibition at 50 µg/mL came out at 100%.
With `C=CCN1CC[C@]23c4c5ccc(O)c4O[C@H]2c2oc4ccccc4c2C[C@@]3(O)[C@H]1C5` [allyl OH H O H H], the inhibition at 1 µg/mL came to 6%, the inhibition at 10 µg/mL is 45% and the inhibition at 50 µg/mL came out at 100%.
The corresponding values for `C=CCN1CC[C@]23c4c5ccc(OC)c4O[C@H]2c2[nH]c4ccccc4c2C[C@@]3(O)[C@H]1C5` [allyl OH Me NH H H] are 17%, 32% and 100%.
The corresponding values for `CC(=O)Oc1ccc2c3c1O[C@H]1c4[nH]c5ccccc5c4C[C@@]4(OC(C)=O)[C@@H](C2)N(CC2CC2)CC[C@]314` [cyclopropylmethyl OAc Ac NH H H] are 4%, 55% and 100%.
In the case of `CC(=O)O[C@@]12Cc3c([nH]c4ccccc34)[C@@H]3Oc4c(O)ccc5c4[C@@]31CCN(CC1CC1)[C@@H]2C5` [cyclopropylmethyl OAc H NH H H], the inhibition at 1 µg/mL is 2%, the inhibition at 10 µg/mL was 70% and the inhibition at 50 µg/mL came to 100%.
Consider `Oc1ccc2c3c1O[C@H]1c4nc5ccccc5cc4C[C@@]4(O)[C@@H](C2)N(CC2CC2)CC[C@]314` [cyclopropylmethyl OH H CH H H], for which the inhibition at 1 µg/mL was 15%, the inhibition at 10 µg/mL is 43% and the inhibition at 50 µg/mL turned out to be 75%.
Turning to `Oc1ccc2c3c1O[C@H]1c4nc5ccccc5nc4C[C@@]4(O)[C@@H](C2)N(CC2CC2)CC[C@]314` [cyclopropylmethyl OH H N H H], the inhibition at 1 µg/mL amounted to 10%, the inhibition at 10 µg/mL is 34% and the inhibition at 50 µg/mL worked out at 55%.
In the same order, the values of `Oc1ccc2c3c1O[C@H]1c4[nH]c5ccc6ccccc6c5c4C[C@@]4(O)[C@@H](C2)N(CC2CC2)CC[C@]314` [cyclopropylmethyl OH H NH 4',5'-benzo] are 2%, 30% and 88%.
Regarding `Oc1ccc2c3c1O[C@H]1c4[nH]c5ccc(Br)cc5c4C[C@@]4(O)[C@@H](C2)N(CC2CC2)CC[C@]314` [cyclopropylmethyl OH H NH 5'-Br H], the inhibition at 1 µg/mL was 7%, the inhibition at 10 µg/mL is 40% and the inhibition at 50 µg/mL stood at 100%.
Consider `Oc1ccc2c3c1O[C@H]1c4[nH]c5ccc(Cl)cc5c4C[C@@]4(O)[C@@H](C2)N(CC2CC2)CC[C@]314` [cyclopropylmethyl OH H NH 5'-Cl H], for which the inhibition at 1 µg/mL amounted to 12%, the inhibition at 10 µg/mL came out at 37% and the inhibition at 50 µg/mL turned out to be 100%.
In the same order, the values of `Cc1ccc2[nH]c3c(c2c1)C[C@@]1(O)[C@H]2Cc4ccc(O)c5c4[C@@]1(CCN2CC1CC1)[C@H]3O5` [cyclopropylmethyl OH H NH 5'-Me H] are 8%, 34% and 100%.
`Cc1ccc2c3c([nH]c2c1)[C@@H]1Oc2c(O)ccc4c2[C@@]12CCN(CC1CC1)[C@H](C4)[C@]2(O)C3` [cyclopropylmethyl OH H NH 6'-Me H]: the inhibition at 1 µg/mL amounted to 0%, the inhibition at 10 µg/mL was determined as 28% and the inhibition at 50 µg/mL was found to be 100%.
In the same order, the values of `Oc1ccc2c3c1O[C@H]1c4[nH]c5c(Cl)cccc5c4C[C@@]4(O)[C@@H](C2)N(CC2CC2)CC[C@]314` [cyclopropylmethyl OH H NH 7'-Cl H] are 15%, 75% and 100%.
For the compound `Oc1ccc2c3c1O[C@H]1c4[nH]c5c(F)cccc5c4C[C@@]4(O)[C@@H](C2)N(CC2CC2)CC[C@]314` [cyclopropylmethyl OH H NH 7'-F H], the inhibition at 1 µg/mL worked out at 15%, the inhibition at 10 µg/mL worked out at 61% and the inhibition at 50 µg/mL worked out at 100%.
Regarding `O=[N+]([O-])c1cccc2c3c([nH]c12)[C@@H]1Oc2c(O)ccc4c2[C@@]12CCN(CC1CC1)[C@H](C4)[C@]2(O)C3` [cyclopropylmethyl OH H NH 7'-NO2 H], the inhibition at 1 µg/mL is 5%, the inhibition at 10 µg/mL is 55% and the inhibition at 50 µg/mL was found to be 100%.
In the same order, the values of `Cn1c2c(c3ccccc31)C[C@@]1(O)[C@H]3Cc4ccc(O)c5c4[C@@]1(CCN3CC1CC1)[C@H]2O5` [cyclopropylmethyl OH H NMe H H] are 15%, 69% and 100%.
In the case of `COc1ccc2c3c1O[C@H]1c4[nH]c5ccccc5c4C[C@@]4(O)[C@@H](C2)N(CC2CC2)CC[C@]314` [cyclopropylmethyl OH Me NH H H], the inhibition at 1 µg/mL was found to be 9%, the inhibition at 10 µg/mL turned out to be 65% and the inhibition at 50 µg/mL turned out to be 100%.
